Source: patent publication US20120258482A1, “PCNA […]” (INDIANA UNIVERSITY RESEARCH AND TECHNOLOGY CORPORATION, priority 2009, published 2012)

Columns and labels:
Format in all cases: cell-based, human
[1] = test system: p21WAF1/CIP1 in MCF7 cells; experiment: Immunoblot with anti-p21WAF1 antibodies after DOX treatment; settings: 5 μM DOX, 4 h after treatment
[2] = test system: PCNA isoform in MCF7 cells (p53 wild-type); experiment: 2D-PAGE anti-PCNA immunoblot after DOX exposure, MCF7; settings: high-dose (5 μM) DOX
Experimental: (§1) FIG. 7A is a Western blot analysis of p53 wild-type (MCF7) and p53-mutant (MDA-MB-468) breast carcinoma cell lines exposed to 5 μM DOX for the indicated times. Cell extracts (200 μg) were resolved by 2D-PAGE and immunoblotted with anti-PCNA antibodies. In FIG. 7B extracts from MCF7 cells (50 μg) treated with 5 μM DOX were separated by 12% SDS-PAGE and immunoblotted with anti-p21WAF1 antibodies. FIG. 7C is a Western blot analysis of glutathione-immobilized GST-p21 and GST-PIP (a.a. 139-160) fusion proteins incubated with untreated MCF7 cell extracts for 2 h at 4° C. and the pull-down fractions were resolved by 2D-PAGE and Western blotted for PCNA. PCNA isoforms were isolated from MCF7 extracts by incubation with PIP-affinity beads for ˜2 h and analyzed by 2D-PAGE using pH 4-7 IPG strips. Colloidal Coomassie stained spots (See FIG. 7D) were excised from the gel, trypsin digested, and sequenced by LC-MS/MS.
(§2) 2D-PAGE and mass spectrometry. Isoelectric focusing was performed using IPG strips and an IEF cell (BioRad) as previously described (Hoelz, D. J. et al. Proteomics 6, 4808-4816, 2006). […] Anti-PCNA (PC10) antibodies were obtained from Santa Cruz Biotech and anti-WAF1 (DF10) were from EMD Biosciences.
(§3) Although the description of Arm1 identifies a novel posttranslational mechanism in eukaryotic cells, its biological significance was still unclear. […]

[3] = test system: PCNA isoform in MDA MB468 cells (p53-mutant); experiment: 2D-PAGE anti-PCNA immunoblot after DOX exposure, MDA MB468; settings: 5 μM DOX
Experimental: as §1, §2, §3

## COc1cccc2c1C(=O)c1c(O)c3c(c(O)c1C2=O)C[C@@](O)(C(=O)CO)C[C@@H]3O[C@H]1C[C@H](N)[C@H](O)[C@H](C)O1 [DOX, doxorubicin]
[1]
  induction of p21 expression: over 27 fold
[2]
  basic-shifted (methyl esterified) PCNA isoform, pI ~5.6: induced
[3]
  basic-shifted (methyl esterified) PCNA isoform: unable to identify the isoform
